This is an account of results in patent US20120282346A1, “BRIMONIDINE COMPOSITIONS FOR TREATING ERYTHEMA” (priority 2007, published 2012).

Molecules are shown by their SMILES.

In this assay the test system is erythema. The note with it: high dosage gel (0.20% by weight brimonidine tartrate), applied topically each day for 28 days; across all visits (days 1, 14, 28), evaluated up to eight hours; patients with moderate to severe erythema; p<0.001. The method, then:
A double-blind, placebo-controlled study was conducted at six centers of 110 patients with moderate to severe erythema. […] On days 1, 14, and 28, patients applied the gel under the supervision of clinical staff in the study centers, and were evaluated at set intervals for up to eight hours.
Evaluation led to a Clinician's Erythema Assessment Score (CEA). Each patients' erythema was rated on a scale from 0 to 4, with 0 being the rating for no erythema and 4 being the rating for extreme erythema.
Also, a side effect profile was established.

`Brc1c(N=C2NCCN2)ccc2nccnc12.O=C(O)C(O)C(O)C(=O)O` [brimonidine tartrate, 5-bromo-6-(2-imidazolidinylideneamino) quinoxaline L-tartrate]: the “reduction in the average CEA (Clinician's Erythema Assessment Score, scale 0 to 4)” value is on record as “statistically significant reduction”.
